Values after ≈ are worked out from the molar mass of the structure shown. Read-outs that look alike come from different tables or passages of the source. *1 amine or outer side, *2 acyl side, *3 side chain or, on linkers, in order; H or OH if unused. Where a SMILES comes first, the peptide text is derived from it. Side-chain parts run from the residue outwards. [ ]: non-standard residue; d: D form. The star is where a group is joined. γGlu = O=C(O)[C@H](CCC(=O)[*:2])N[*:1]; Stearoyl = CCCCCCCCCCCCCCCCCC(=O)*; Aib = CC(C)(N)C(=O)O

Data set [1] has as its target T1, human GLP-1 receptor (hGLP-1 R) (Homo sapiens, UniProt P43220).
T1 construct: expressed in transfected cells; host or cells: HEK-293
Put plainly: cAMP response of HEK-293 cells stably expressing human GLP-1 receptor (HTRF). Format: cell-based. The note with it: Table 7, cAMP formation. As to the method: (§1) cAMP content of cells was determined using a kit from Cisbio Corp. (cat. no. 62AM4PEC) based on HTRF (Homogenous Time Resolved Fluorescence). For preparation, cells were split into T175 culture flasks and grown overnight to near confluency in medium (DMEM/10% FBS). Medium was then removed and cells washed with PBS lacking calcium and magnesium, followed by proteinase treatment with accutase (Sigma-Aldrich cat. no. A6964). Detached cells were washed and resuspended in assay buffer (1×HBSS; 20 mM HEPES, 0.1% BSA, 2 mM IBMX) and cellular density determined. They were then diluted to 400000 cells/ml and 25 μl-aliquots dispensed into the wells of 96-well plates. For measurement, 25 μl of test compound in assay buffer was added to the wells, followed by incubation for 30 minutes at room temperature.
For orientation: In TR-FRET formats the signal depends on donor and acceptor labels being close together.

In data set [2] the target is T2, human GIP receptor (hGIP R) (Homo sapiens, UniProt P48546).
T2 construct: expressed in transfected cells; host or cells: HEK-293
T2 sequence (P48546 22-466): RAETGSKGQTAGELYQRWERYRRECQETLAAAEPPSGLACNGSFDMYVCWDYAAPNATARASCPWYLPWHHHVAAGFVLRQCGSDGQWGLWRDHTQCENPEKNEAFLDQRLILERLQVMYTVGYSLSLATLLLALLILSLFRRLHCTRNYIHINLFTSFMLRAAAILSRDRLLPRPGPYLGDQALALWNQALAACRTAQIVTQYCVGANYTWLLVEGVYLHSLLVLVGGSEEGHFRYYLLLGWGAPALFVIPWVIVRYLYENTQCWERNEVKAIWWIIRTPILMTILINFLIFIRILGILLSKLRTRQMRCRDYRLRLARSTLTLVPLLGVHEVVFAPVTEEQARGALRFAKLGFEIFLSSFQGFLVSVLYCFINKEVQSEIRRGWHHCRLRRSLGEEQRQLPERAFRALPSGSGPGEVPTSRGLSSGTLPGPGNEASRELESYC
Description: cAMP response of HEK-293 cells stably expressing human GIP receptor (HTRF). It is filed as cell-based. As to the method: as §1

Data set [3] has as its target T3, human glucagon receptor (hGLUC R) (Homo sapiens, UniProt P47871).
T3 construct: expressed in transfected cells; host or cells: HEK-293
Description: cAMP response of HEK-293 cells stably expressing human glucagon receptor (HTRF). The note with it: Table 7, cAMP formation. Format: cell-based. How it is done:
as §1

The target in data set [4] is T4, human GIP receptor (human) (UniProt P48546).
T4 sequence (looked up): T2 sequence (P48546 22-466)
Put plainly: cell-based or functional assay.

The target of data set [5] is human GLP-1 receptor (human) (UniProt P43220). Description: cell-based or functional assay.
A short description of data set [6]: Solubility testing in buffer systems (HPLC-UV). Format: physicochemical. The note with it: buffer system, target concentration 1.0 mg/mL.
The nature of data set [7]: Chemical stability in solution, 7 days at 25° C. (% remaining peptide). The following applies: % remaining peptide after 7 days at 25° C., pH 7.4. Format: physicochemical. An excerpt: The chemical stability is expressed as “% remaining peptide”.
The subject of data set [8] is non-fasted female diabetic dbdb-mice. Put plainly: Glucose lowering in non-fasted female diabetic dbdb-mice. Format: in vivo. The following applies: 3 μg/kg s.c. An excerpt: Female diabetic dbdb-mice of mean non-fasted glucose value of 20-22 mmol/l and a body weight of 42 g+/−0.6 g (SEM) were used. Mice were individually marked and were adapted to housing conditions for at least one week.
3-5 days prior to study start mice were assigned to groups and cages (4 mice per cage, 8 per group) according to their non-fasted glucose values to ensure even distribution of lower and higher values between groups (stratification). On the study day, mice were weighed and dosed (t=0). Immediately prior to compound administration feed was removed while water remained available, and a first blood sample at a tail incision was drawn (baseline). Further blood samples were drawn at the tail incision at 30, 60, 90, 120, 240, 360, and 480 min.
Statistical analyses are performed with Everstat Version 6.0 based on SAS by 2-way-ANOVA on repeated measures, followed by Dunnett's post-hoc test against vehicle-control. Differences are considered statistically significant at the p<0.05 level.
Female dbdb-mice, received 3 μg/kg of SEQ ID NO: 13 or phosphate buffered saline (vehicle control) subcutaneously, at time 0 min.

T1 sequence (P43220 24-463): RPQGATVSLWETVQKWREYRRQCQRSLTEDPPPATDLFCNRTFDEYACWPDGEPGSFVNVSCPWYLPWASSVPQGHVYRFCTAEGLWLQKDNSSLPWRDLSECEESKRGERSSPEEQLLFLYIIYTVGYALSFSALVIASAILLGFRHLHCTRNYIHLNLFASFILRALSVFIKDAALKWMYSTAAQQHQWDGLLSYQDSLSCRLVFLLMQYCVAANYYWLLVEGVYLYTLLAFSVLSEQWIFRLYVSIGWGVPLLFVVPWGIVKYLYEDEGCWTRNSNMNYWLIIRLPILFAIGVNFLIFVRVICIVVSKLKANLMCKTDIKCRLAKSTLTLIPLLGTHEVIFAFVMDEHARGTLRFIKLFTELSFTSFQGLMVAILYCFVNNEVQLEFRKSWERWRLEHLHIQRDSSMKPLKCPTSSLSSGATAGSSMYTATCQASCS
T3 sequence (P47871 26-477): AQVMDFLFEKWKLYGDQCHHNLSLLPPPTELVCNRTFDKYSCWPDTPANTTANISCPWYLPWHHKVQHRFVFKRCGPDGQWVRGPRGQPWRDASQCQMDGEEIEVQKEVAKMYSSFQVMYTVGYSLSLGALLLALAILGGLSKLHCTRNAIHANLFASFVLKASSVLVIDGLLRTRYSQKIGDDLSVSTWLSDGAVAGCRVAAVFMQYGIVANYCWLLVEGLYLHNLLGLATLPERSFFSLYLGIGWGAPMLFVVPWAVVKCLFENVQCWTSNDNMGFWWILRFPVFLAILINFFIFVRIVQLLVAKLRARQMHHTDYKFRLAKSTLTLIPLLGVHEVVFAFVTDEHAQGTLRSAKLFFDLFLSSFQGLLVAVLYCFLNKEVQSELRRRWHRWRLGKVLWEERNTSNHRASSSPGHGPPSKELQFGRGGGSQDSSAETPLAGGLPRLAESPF
Chain of human GLP-1 receptor (human) (P43220 24-463): as the sequence (P43220 24-463) above

Broadly, the EC50 is the concentration needed to bring the measured effect to its halfway point. As for `CCCCCCCCCCCCCCCCCC(=O)N[C@@H](CCC(=O)NCCCC[C@H](NC(=O)[C@H](CCC(N)=O)NC(=O)[C@@H](NC(=O)[C@H](CO)NC(=O)[C@H](CC(C)C)NC(=O)[C@H](CC(=O)O)NC(=O)[C@H](CO)NC(=O)[C@@H](NC(=O)[C@H](Cc1ccccc1)NC(=O)[C@@H](NC(=O)CNC(=O)[C@H](CCC(=O)O)NC(=O)C(C)(C)NC(=O)[C@@H](N)Cc1ccc(O)cc1)[C@@H](C)O)[C@@H](C)O)[C@@H](C)CC)C(=O)N[C@@H](CCC(=O)O)C(=O)N[C@@H](CCC(=O)O)C(=O)N[C@@H](CCC(=O)O)C(=O)N[C@@H](C)C(=O)N[C@H](C(=O)N[C@@H](CCCNC(=N)N)C(=O)N[C@@H](CC(C)C)C(=O)N[C@@H](Cc1ccccc1)C(=O)N[C@H](C(=O)N[C@@H](CCC(=O)O)C(=O)N[C@@H](Cc1c[nH]c2ccccc12)C(=O)N[C@@H](CC(C)C)C(=O)N[C@@H](CCCCN)C(=O)NC(C)(C)C(=O)NCC(=O)NCC(=O)N1CCC[C@H]1C(=O)N[C@@H](CO)C(=O)N[C@@H](CO)C(=O)NCC(=O)N[C@@H](C)C(=O)N1CCC[C@H]1C(=O)N1CCC[C@H]1C(=O)N1CCC[C@H]1C(=O)N[C@@H](CO)C(N)=O)[C@@H](C)CC)C(C)C)C(=O)O` [SEQ ID NO: 9, Y-Aib-E-G-T-F-T-S-D-L-S-I-Q-K(γE-x70)-E-E-E-A-V-R-L-F-I-E-W-L-K-Aib-G-G-P-S-S-G-A-P-P-P-S-NH2], the EC50 is 0.0267 nM in data set [1] (EC50 hGLP-1 R), 0.0146 nM in data set [2] and 164 nM in data set [3] (EC50 hGLUC R).
Tyr(1)Ile(12)-exendin-4 (peptide): in data set [4], the EC50 hGIP R [pM] (formed cAMP) was 93.9 pM. Moreover, the EC50 hGLP-1 R [pM] (formed cAMP) in data set [5] came to 1.3 pM.
A word on the solubility: it is the concentration that dissolves in the medium under given conditions. As to `CCCCCCCCCCCCCCCCCC(=O)N[C@@H](CCC(=O)NCCCC[C@H](NC(=O)[C@H](CCC(N)=O)NC(=O)[C@@H](NC(=O)[C@H](CO)NC(=O)[C@H](CC(C)C)NC(=O)[C@H](CC(=O)O)NC(=O)[C@H](CO)NC(=O)[C@@H](NC(=O)[C@H](Cc1ccccc1)NC(=O)[C@@H](NC(=O)CNC(=O)[C@H](CCC(=O)O)NC(=O)C(C)(C)NC(=O)[C@@H](N)Cc1ccc(O)cc1)[C@@H](C)O)[C@@H](C)O)[C@@H](C)CC)C(=O)N[C@@H](CCC(=O)O)C(=O)N[C@@H](CCCCN)C(=O)N[C@@H](CCC(=O)O)C(=O)N[C@@H](C)C(=O)N[C@H](C(=O)N[C@@H](CCCNC(=N)N)C(=O)N[C@@H](CC(C)C)C(=O)N[C@@H](Cc1ccccc1)C(=O)N[C@H](C(=O)N[C@@H](CCC(=O)O)C(=O)N[C@@H](Cc1c[nH]c2ccccc12)C(=O)N[C@@H](CC(C)C)C(=O)N[C@@H](CCCCN)C(=O)N[C@@H](C)C(=O)NCC(=O)NCC(=O)N1CCC[C@H]1C(=O)N[C@@H](CO)C(=O)N[C@@H](CO)C(=O)NCC(=O)N[C@@H](C)C(=O)N1CCC[C@H]1C(=O)N1CCC[C@H]1C(=O)N1CCC[C@H]1C(=O)N[C@@H](CO)C(N)=O)[C@@H](C)CC)C(C)C)C(=O)O` [SEQ ID NO: 13, Y-Aib-E-G-T-F-T-S-D-L-S-I-Q-K(γE-x70)-EKEAVRLFIEWLKAGGPSSGAPPPS-NH2] (H-Y[Aib]EGTFTSDLSIQK([γGlu-Stearoyl])EKEAVRLFIEWLKAGGPSSGAPPPS-NH2), the EC50 is 0.0212 nM in data set [1] (read-out: EC50 hGLP-1 R); 0.0168 nM in data set [2] (Table 7, cAMP formation, read-out: EC50 hGIP R); 200 nM in data set [3] (read-out: EC50 hGLUC R). The solubility at 2 h in data set [6] (pH 4.5, read-out: Solubility (pH 4.5)) amounted to 688 µg/mL (≈ 150 µM); in data set [6] (pH 7.4, read-out: Solubility (pH 7.4)) it was 824 µg/mL (≈ 180 µM). Moreover, the “Stability (pH 7.4)” value in data set [7] is 84.0%. Further, the “maximal effect, glucose reduction” value in data set [8] (at 240 min, kept to 480 min, baseline 20-22 mmol/l) was approximately 12 mmol/L. In addition, the “reduction of glucose compared to vehicle control” value in data set [8] (from t=90 min until end of observation, p<0.05) is “statistical significant reduction of glucose”.

The values are drawn from patent publication US20140206608A1 (priority 2012, published 2014).
